Test results published in ChEMBL document CHEMBL3112553, “Synthesis and biological evaluation of novel C6-amino substituted 4-azasteroidal purine nucleoside analogues” (Bioorg Med Chem Lett, 2014).

What was measured:
Assay type in all cases: functional, cell-based
PC-3 = test: Antiproliferative activity against human PC3 cells by MTT assay
MCF7 = test: Antiproliferative activity against human MCF7 cells by MTT assay
HeLa = test: Antiproliferative activity against human HeLa cells by MTT assay

IC50 (PC-3) [µM]	IC50 (MCF7) [µM]	IC50 (HeLa) [µM]	SMILES
20.6	> 100	> 100	C[C@]12CCC(=O)N[C@@H]1CC[C@@H]1[C@@H]2CC[C@]2(C)O[C@H](n3cnc4c(NCc5ccccc5)ncnc43)CC[C@@H]12
> 100	> 100	> 100	C[C@]12CCC(=O)N[C@@H]1CC[C@@H]1[C@@H]2CC[C@]2(C)O[C@H](n3cnc4c(N(CCO)CCO)nc(Cl)nc43)CC[C@@H]12
17.9	12.8	2.69	C[C@]12CCC(=O)N[C@@H]1CC[C@@H]1[C@@H]2CC[C@]2(C)O[C@H](n3cnc4c(NCc5ccccc5)nc(Cl)nc43)CC[C@@H]12
44.2	32.7	28.2	Cc1ccc(CNc2ncnc3c2ncn3[C@@H]2CC[C@H]3[C@@H]4CC[C@H]5NC(=O)CC[C@]5(C)[C@H]4CC[C@]3(C)O2)cc1
26.6	12.9	67.2	Cc1ccc(CNc2nc(Cl)nc3c2ncn3[C@@H]2CC[C@H]3[C@@H]4CC[C@H]5NC(=O)CC[C@]5(C)[C@H]4CC[C@]3(C)O2)cc1
> 100	> 100	10.1	COc1ccc(CNc2nc(Cl)nc3c2ncn3[C@@H]2CC[C@H]3[C@@H]4CC[C@H]5NC(=O)CC[C@]5(C)[C@H]4CC[C@]3(C)O2)cc1
> 100	> 100	33.8	CCN(CC)c1ncnc2c1ncn2[C@@H]1CC[C@H]2[C@@H]3CC[C@H]4NC(=O)CC[C@]4(C)[C@H]3CC[C@]2(C)O1
> 100	> 100	61.3	CN(C)c1nc(Cl)nc2c1ncn2[C@@H]1CC[C@H]2[C@@H]3CC[C@H]4NC(=O)CC[C@]4(C)[C@H]3CC[C@]2(C)O1
2.84	> 100	> 100	CC(CO)Nc1nc(Cl)nc2c1ncn2[C@@H]1CC[C@H]2[C@@H]3CC[C@H]4NC(=O)CC[C@]4(C)[C@H]3CC[C@]2(C)O1 (stereo partly specified)
> 100	> 100	66.2	C[C@]12CCC(=O)N[C@@H]1CC[C@@H]1[C@@H]2CC[C@]2(C)O[C@H](n3cnc4c(NCCN)ncnc43)CC[C@@H]12
49.2	> 100	> 100	C[C@]12CCC(=O)N[C@@H]1CC[C@@H]1[C@@H]2CC[C@]2(C)O[C@H](n3cnc4c(NCCO)ncnc43)CC[C@@H]12
15.8	> 100	> 100	CC(CO)Nc1ncnc2c1ncn2[C@@H]1CC[C@H]2[C@@H]3CC[C@H]4NC(=O)CC[C@]4(C)[C@H]3CC[C@]2(C)O1 (stereo partly specified)

The remaining lines, values behind:

SMILES	IC50 (PC-3) [µM]	IC50 (MCF7) [µM]	IC50 (HeLa) [µM]
C[C@]12CCC(=O)N[C@@H]1CC[C@@H]1[C@@H]2CC[C@]2(C)O[C@H](n3cnc4c(NCCO)nc(Cl)nc43)CC[C@@H]12	> 100	> 100	> 100
C[C@]12CCC(=O)N[C@@H]1CC[C@@H]1[C@@H]2CC[C@]2(C)O[C@H](n3cnc4c(N(CCO)CCO)ncnc43)CC[C@@H]12	> 100	> 100	> 100
COc1ccc(CNc2ncnc3c2ncn3[C@@H]2CC[C@H]3[C@@H]4CC[C@H]5NC(=O)CC[C@]5(C)[C@H]4CC[C@]3(C)O2)cc1	> 100	60.3	38.7
C[C@]12CCC(=O)N[C@@H]1CC[C@@H]1[C@@H]2CC[C@]2(C)O[C@H](n3cnc4c(NCc5ccc(F)cc5)ncnc43)CC[C@@H]12	91.5	34.8	> 100
C[C@]12CCC(=O)N[C@@H]1CC[C@@H]1[C@@H]2CC[C@]2(C)O[C@H](n3cnc4c(NCc5ccc(F)cc5)nc(Cl)nc43)CC[C@@H]12	> 100	13.5	59.1
CCN(CC)c1nc(Cl)nc2c1ncn2[C@@H]1CC[C@H]2[C@@H]3CC[C@H]4NC(=O)CC[C@]4(C)[C@H]3CC[C@]2(C)O1	58.1	16.4	31.1
C[C@]12CCC(=O)N[C@@H]1CC[C@@H]1[C@@H]2CC[C@]2(C)O[C@H](n3cnc4c(NN)ncnc43)CC[C@@H]12	87.2	34.6	> 100
C[C@]12CCC(=O)N[C@@H]1CC[C@@H]1[C@@H]2CC[C@]2(C)O[C@H](n3cnc4c(NN)nc(Cl)nc43)CC[C@@H]12	2.99	> 100	> 100
CN(C)c1ncnc2c1ncn2[C@@H]1CC[C@H]2[C@@H]3CC[C@H]4NC(=O)CC[C@]4(C)[C@H]3CC[C@]2(C)O1	> 100	57.7	70.5
C[C@]12CCC(=O)N[C@@H]1CC[C@@H]1[C@@H]2CC[C@]2(C)O[C@H](n3cnc4c(NCCN)nc(Cl)nc43)CC[C@@H]12	63.4	70.3	22.7
